{"source": "patent US20050163842A1", "about": "“Rosiglitazone and metformin formulations” (priority 2003, published 2005)", "origin": "cited, not measured here", "key": {"[1]": {"tested_on": "mouse models of diabetes"}, "[2]": {"tested_on": "animal models of type 2 diabetes"}}}
{"smiles": "CN(CCOc1ccc(CC2SC(=O)NC2=O)cc1)c1ccccn1", "note": "(stereo not drawn) [Rosiglitazone, 5-[4-[2-(N-methyl-N-(2-pyridyl)amino)ethoxy]benzyl]thiazolidine-2,4-dione]", "values": [{"measurement": "development of overt diabetes", "setting": "[1]; mouse models", "value": "prevent the development of overt diabetes"}, {"measurement": "blood glucose levels and hyperinsulinemia", "setting": "[1]; several mouse models of diabetes", "value": "reduce blood glucose levels and hyperinsulinemia"}, {"measurement": "hypoglycemia or impaired glucose tolerance", "setting": "[2]", "value": "did not induce hypoglycemia or impaired glucose tolerance"}]}
